Article PMC9105976, “A Novel β-Hairpin Peptide Z-d14CFR Enhances Multidrug-Resistant Bacterial Clearance in a Murine Model of Mastitis” (International Journal of Molecular Sciences, 2022)
Marks after values point to notes of the source that are not given here. No end group written: not given here.

Experiments:
[1] = Retention time of peptide in HPLC (hydrophobicity); format: physicochemical; conditions: used as measure of hydrophobicity (order Z-d14CR > Z-d14CF > Z-d13 > Z-d14CFR > Z-d14C); column and gradient not given
MRSA ATCC33591 = assay: MIC/MBC, microdilution broth method; format: cell-based, S. aureus
Procedure, shortened: (§1)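 Broth microdilution: inoculum 1 × 10^6 CFU/mL in 10 mM PBS (from OD600 0.6 culture); peptide or ampicillin/gentamicin added 1:1 by volume, pre-mix range 0.001–2 mg/mL.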

[2] = tested on: Escherichia coli ATCC25922; assay: MIC/MBC, microdilution broth method; format: cell-based; conditions: Escherichia coli ATCC25922
Procedure, shortened: as §1

[3] = tested on: Escherichia coli CVCC1450; assay: MIC/MBC, microdilution broth method; format: cell-based; conditions: Escherichia coli CVCC1450
Procedure, shortened: as §1

[4] = tested on: Escherichia coli CAU 201919; assay: MIC/MBC, microdilution broth method; format: cell-based; conditions: Escherichia coli CAU 201919 (MDR isolate)
Procedure, shortened: as §1

[5] = tested on: Bacillus cereus CAU 202020; assay: MIC/MBC, microdilution broth method; format: cell-based; conditions: Bacillus cereus CAU 202020 (MDR isolate)
Procedure, shortened: as §1

[6] = tested on: Salmonella typhimurium ATCC14028; assay: MIC/MBC, microdilution broth method; format: cell-based; conditions: Salmonella typhimurium ATCC14028
Procedure, shortened: as §1

[7] = tested on: Staphylococcus haemolyticus CAU202078; assay: MIC/MBC, microdilution broth method; format: cell-based; conditions: Staphylococcus haemolyticus CAU202078 (MDR isolate)
Procedure, shortened: as §1

[8] = tested on: Klebsiella pneumoniae CAU202084; assay: MIC/MBC, microdilution broth method; format: cell-based; conditions: Klebsiella pneumoniae CAU202084 (MDR isolate)
Procedure, shortened: as §1

[9] = tested on: Staphylococcus aureus ATCC29213; assay: MIC/MBC, microdilution broth method; format: cell-based; conditions: Staphylococcus aureus ATCC29213
Procedure, shortened: as §1

[10] = tested on: Streptococcus suis CVCC3307; assay: MIC/MBC, microdilution broth method; format: cell-based; conditions: Streptococcus suis CVCC3307
Procedure, shortened: as §1

[11] = tested on: Proteus vulgaris CVCC1971; assay: MIC/MBC, microdilution broth method; format: cell-based; conditions: Proteus vulgaris CVCC1971
Procedure, shortened: as §1

[12] = tested on: Escherichia coli CAU 201920; assay: MIC/MBC, microdilution broth method; format: cell-based; conditions: Escherichia coli CAU 201920 (MDR isolate)
Procedure, shortened: as §1

[13] = tested on: Gram-positive and Gram-negative bacteria; assay: Antimicrobial activity, statements over the bacterial panel; format: cell-based; conditions: data not shown
Procedure: The MIC of peptides against bacteria was carried out by the microdilution broth method. The bacterial culture (OD 600 = 0.6) was diluted in 10 mM PBS to 1 × 10^6 CFU/mL. […]

[14] = 1 × 10^6 CFU/mL, 18 h at 37 °C, NA = no antimicrobial activity at 1 mg/mL
[15] = minimum concentration which kills 99.9% bacteria, NA = no activity at 1 mg/mL
[16] = kills 99.9% bacteria, NA = no activity at 1 mg/mL

Substance: GGYCNSKSVCVCR-NH2 (disulfide (positions not given here)) [Z-d13, Z. atratus defensin β-sheet region analogue, …-NH2]
- RT, retention time of peptide in HPLC [1]: 9.077 min
- MIC (MRSA ATCC33591; MRSA (methicillin-resistant S. aureus) ATCC33591, 1 × 10^6 CFU/mL, 18 h at 37 °C, NA = no antimicrobial activity at 1 mg/mL): NA (NA) (No antimicrobial activity at 1 mg/mL)
- MBC (MRSA ATCC33591; MRSA ATCC33591, kills 99.9% bacteria, NA = no activity at 1 mg/mL): NA (NA) (No antimicrobial activity at 1 mg/mL)
- MIC [2, 14]: NA (NA) ^c (No antimicrobial activity at 1 mg/mL)
- MBC [2, 15]: NA (NA) ^c (No antimicrobial activity at 1 mg/mL)
- MIC [3, 14]: NA (NA) (No antimicrobial activity at 1 mg/mL)
- MBC [3, 15]: NA (NA) (No antimicrobial activity at 1 mg/mL)
- MIC [4, 14]: NA (NA) (No antimicrobial activity at 1 mg/mL)
- MBC [4, 16]: NA (NA) (No antimicrobial activity at 1 mg/mL)
- MIC [5, 14]: NA (NA) (No antimicrobial activity at 1 mg/mL)
- MBC [5, 16]: NA (NA) (No antimicrobial activity at 1 mg/mL)
- MIC [6, 14]: NA (NA) (No antimicrobial activity at 1 mg/mL)
- MBC [6, 16]: NA (NA) (No antimicrobial activity at 1 mg/mL)
- MIC [7, 14]: NA (NA) (No antimicrobial activity at 1 mg/mL)
- MBC [7, 16]: NA (NA) (No antimicrobial activity at 1 mg/mL)
- MIC [8, 14]: NA (NA) (No antimicrobial activity at 1 mg/mL)
- MBC [8, 16]: NA (NA) (No antimicrobial activity at 1 mg/mL)
- MIC [9, 14]: NA (NA) (No antimicrobial activity at 1 mg/mL)
- MBC [9, 16]: NA (NA) (No antimicrobial activity at 1 mg/mL)
- MIC [10, 14]: NA (NA) (No antimicrobial activity at 1 mg/mL)
- MBC [10, 16]: NA (NA) (No antimicrobial activity at 1 mg/mL)
- MIC [11, 14]: NA (NA) (No antimicrobial activity at 1 mg/mL)
- MBC [11, 16]: NA (NA) (No antimicrobial activity at 1 mg/mL)
- MIC [12, 14]: NA (NA) (No antimicrobial activity at 1 mg/mL)
- MBC [12, 16]: NA (NA) (No antimicrobial activity at 1 mg/mL)
- activity against bacteria at 3 mg/mL [13]: slight activity
